Laboratory results: US20210355105A1, “REGULATOR OF NITROGEN-CONTAINING HETEROAROMATIC DERIVATIVES, PREPARATION METHOD THEREFOR AND USE THEREOF” (Jiangsu Hansoh Pharmaceutical Group Co., Ltd., priority 2018, published 2021)

Experiments:
NCI-H358 cells = assay: Proliferation inhibition of NCI-H358 cells (CellTiter-Glo); type: cell-based; conditions: Homo sapiens, NCI-H358, 72 h; 3 days incubation
Method: Experimental method: 3000 cells (90 μL of cell suspension) were inoculated to each well of a 96-well cell culture plate (Corning, #3610). The culture plate was incubated in an incubator overnight (37° C., 5% CO2). On the next day, 10 μL of gradient dilutions of the test compound solution (the final DMSO content was 0.2%, V/V, the final concentration of the reaction system ranged from 10 μM to 4.5 nM) was added to each well of the culture plate. At the same time, full activity control (compound only with DMSO) and full inhibition control (no cells) were set up on the reaction plate. The culture plate was incubated in the incubator for 3 days (37° C., 5% CO2).
After completion of the incubation, 50 μL of CellTiter-Glo reagent was added to each well of the cell culture plate, which was left to stand at room temperature for 10 minutes. The chemiluminescence signal value was measured in the Synergy H1 full-function microplate reader (BioTek). […] The IC50 value of the test compounds was calculated by fitting the percentage inhibition rate and data of eight concentrations to a four-parameter nonlinear logic formula with GraphPad prism.
The IC50 value was calculated by fitting the data of different concentrations and corresponding percentage inhibition rates to a four-parameter nonlinear logic formula with GraphPad prism.

[1] = Pharmacokinetics assay in mice, oral administration; type: in vivo; conditions: mouse; male Balb/c mice, oral 5 mg/kg, plasma
Method: (§1) Balb/c mice were used as test animals.
5 g of hydroxyethyl cellulose (HEC, CMC-Na, viscosity: 800-1200 Cps) was dissolved in 1000 mL of purified water, and 10 g of Tween80 was added. The solution was mixed well to form a clear solution. […] The solution was subjected to ultrasound for 10 minutes to obtain a colorless and clear solution with a concentration of 0.5 mg/mL.
After an overnight fast, male Balb/c mice were administrated orally with the test compounds at an administration dose of 5 mg/kg and an administration volume of 10 mL/kg.
Blood was taken before administration and at 0.25 hour, 0.5 hour, 1 hour, 2 hours, 4 hours, 6 hours, 8 hours and 24 hours after administration. The blood samples were stored in EDTA-2K tubes, and centrifuged for 6 minutes at 6000 rpm, at 4° C. to separate the blood plasma. The plasma samples were stored at −80° C. The mice were fed four hours after administration.

[2] = Pharmacokinetics assay in rats, oral administration; type: in vivo; conditions: rat; male SD rats, oral 5 mg/kg, plasma
Method: SD rats were used as test animals.
5 g of hydroxyethyl cellulose (HEC, CMC-Na, viscosity: 800-1200 Cps) was dissolved in 1000 mL of purified water, and 10 g of Tween80 was added. The solution was mixed well to form a clear solution.
The solution was shaked well and subjected to ultrasound for 15 minutes to obtain a colorless and clear solution with a concentration of 0.5 mg/mL.
After an overnight fast, male SD rats (3 rats per group) were administrated orally with the test compounds at an administration dose of 5 mg/kg and an administration volume of 10 mL/kg.
0.2 mL of blood was taken from jugular vein before administration and at 0.5 hour, 1.0 hour, 2.0 hours, 4.0 hours, 6.0 hours, 8.0 hours and 24.0 hours after administration. The blood samples were stored in EDTA-2K tubes, and centrifuged for 6 minutes at 6000 rpm, at 4° C. to separate the blood plasma. The plasma samples were stored at −80° C. The rats were fed four hours after administration.

[3] = test system: human pancreatic cancer cell MiaPaca 2 xenograft; assay: Tumor inhibition test on MiaPaca 2 xenograft model; type: in vivo, Balb/c nude mice; conditions: intragastric
Method: Balb/c nude mice were used as test animals. In vivo pharmacodynamic test was carried out on human pancreatic cancer cell MiaPaca 2 xenograft (CDX) model to evaluate the anti-tumor effect of the test compounds.
MiaPaca 2 cells were taken from the cell bank and thawed. The cells were added to the DMEM medium (containing 10% FBS, 1% Glu and 1% P/S), and incubated in the CO2 incubator (the temperature of the incubator was 37° C., and the CO2 concentration was 5%). After the cells covered 80-90% of the bottom of the culture flask, the cells were passaged. After passage, the cells continued to be incubated in the CO2 incubator. The process was repeated until the number of cells met the inoculation requirement of the in vivo pharmacodynamic test. The cells in logarithmic growth phase were collected, and counted by the automatic cell counter. According to the counting results, the cells were resuspended with PBS and Matrigel (volume ratio: 1:1) to obtain a cell suspension (density: 8×10^7/ml), which was placed in an ice box for later use.
Female Balb/c nude mice (6-8 weeks old, body weight: about 18-22 grams) were used as test animals. The mice were maintained in an environment free of special pathogens and in a single ventilated cage (five mice per cage). All cages, bedding and water were disinfected before use. All animals had free access to standard certified commercial laboratory animal diets. The nude mice were marked with a disposable universal ear tag for rats and mice before the test. The skin of the inoculation site was disinfected with 75% medical alcohol before the inoculation. Each mouse was inoculated with 0.1 ml of MiaPaca 2 tumor cells (containing 8*10^6 cells) subcutaneously on the right back. When the average tumor volume reached 100 to 200 mm^3, administration was carried out. The test compounds were administered intragastrically daily. The tumor volume (mm^3) was measured with the vernier caliper twice a week. The tumor volume calculation formula: V=0.5*D*d*d, wherein D and d represent the long diameter and short diameter of the tumor, respectively. The anti-tumor efficacy was determined by dividing the average tumor increase volume of the compound-treated animals by the average tumor increase volume of the untreated animals. Tumor growth inhibition rate calculation formula: […]
All animals were euthanized after the experiment.

Tolerance assay in mice = type: in vivo, Balb/c mice; conditions: 10 mg/kg QD oral
Method: as §1
The solution was subjected to ultrasound for 10 minutes to obtain a colorless and clear solution with a concentration of 1 mg/mL.
After an overnight fast, Balb/c mice (3 male and 3 female) were administrated orally with the test compound at an administration dose of 10 mg/kg and an administration volume of 10 mL/kg.
The mice were weighed daily before and after administration, and abnormal responses were observed. The mice were fed four hours after administration.

Row | IC50 (NCI-H358 cells) [nM] | AUC(0-inf) [1] [ng·h/mL] | Cmax [1] [ng/mL] | MRT [1] [h] | Tmax [1] [h] | half-life [1] [h] | AUC(0-inf) [2] [ng·h/mL] | Cmax [2] [ng/mL] | MRT [2] [h] | Tmax [2] [h] | half-life [2] [h] | SMILES | Tumor volume (Mean ± SD) Day 0 ([3]; 6 mg/kg QD × 3 w) | TGI Day 21 ([3]; 6 mg/kg QD × 3 w) [%] | Tumor volume (Mean ± SD) Day 21 ([3]; 6 mg/kg QD × 3 w) [mm^3] | ΔT/ΔC Day 21 ([3]; 6 mg/kg QD × 3 w) [%] | also measured
1 | 20.9 | 2440 | 179 | 7.92 | 0.5 | 5.23 | 3840 | 201 | 15.2 | 2 | 10.5 | Nc1nc(N2CCC3(CC2)Cc2ccccc2[C@H]3N)c(F)nc1Sc1ccnc(N)c1Cl [Example 179, (S)-1′-(6-amino-5-((2-amino-3-chloropyridin-4-yl)thio)-3-fluoropyrazin-2-yl)-1,3-dihydrospiro[indene-2,4′-piperidin]-1-amine] | 166 ± 28 (168 ± 32) mm^3 | 91.00 | 227 ± 37 | 9.00 | Body weight (Mean) Day 1 (Tolerance assay in mice; female mice): 22.07 g; Body weight (Mean) Day 16 (Tolerance assay in mice; female mice): 25.09 g; Body weight changes ΔW/W1 (Mean) Day 16 (Tolerance assay in mice; female mice): 13.80%; Body weight (Mean) Day 1 (Tolerance assay in mice; male mice): 23.01 g; Body weight (Mean) Day 16 (Tolerance assay in mice; male mice): 28.30 g; Body weight changes ΔW/W1 (Mean) Day 16 (Tolerance assay in mice; male mice): 23.25%
2 | 46.5 | 8160 | 1380 | 5.07 | 0.5 | 4.63 | 5890 | 614 | 5.84 | 2 | 3.55 | Nc1nc(N2CCC3(CC2)Cc2ncsc2[C@H]3N)c(F)nc1Sc1ccnc(N)c1Cl [Example 181, (S)-1′-(6-amino-5-((2-amino-3-chloropyridin-4-yl)thio)-3-fluoropyrazin-2-yl)-4,6-dihydrospiro[cyclopenta[d]thiazole-5,4′-piperidin]-6-amine] | – | – | – | – | Tumor volume (Mean ± SD) Day 0 ([3]; 10 mg/kg QD × 3 w): 176 ± 36 (176 ± 39) mm^3; TGI Day 21 ([3]; 10 mg/kg QD × 3 w): 92.94%; Tumor volume (Mean ± SD) Day 21 ([3]; 10 mg/kg QD × 3 w): 240 ± 86 mm^3; ΔT/ΔC Day 21 ([3]; 10 mg/kg QD × 3 w): 7.06%
3 | 11.9 | 2210 | 475 | 4.34 | 0.5 | 3.07 | 1780 | 189 | 5.78 | 1 | 3.69 | Cc1nc(N2CCC3(CC2)Cc2ncsc2[C@H]3N)c(CO)nc1Sc1ccnc(N)c1Cl [Example 171, (S)-(6-((2-amino-3-chloropyridin-4-yl)thio)-3-(6-amino-4,6-dihydrospiro[cyclopenta[d]thiazole-5,4′-piperidin]-1′-yl)-5-methylpyrazin-2-yl)methanol] | 167 ± 26 (168 ± 32) mm^3 | 95.43 | 198 ± 70 | 4.57 | –

Row | SMILES | IC50 (NCI-H358 cells) [nM] | AUC(0-inf) [1] [ng·h/mL] | Cmax [1] [ng/mL] | MRT [1] [h] | Tmax [1] [h] | half-life [1] [h] | AUC(0-inf) [2] [ng·h/mL] | Cmax [2] [ng/mL] | MRT [2] [h] | Tmax [2] [h] | half-life [2] [h] | Tumor volume (Mean ± SD) Day 0 ([3]; 6 mg/kg QD × 3 w) | TGI Day 21 ([3]; 6 mg/kg QD × 3 w) [%] | Tumor volume (Mean ± SD) Day 21 ([3]; 6 mg/kg QD × 3 w) [mm^3] | ΔT/ΔC Day 21 ([3]; 6 mg/kg QD × 3 w) [%] | also measured
4 | Nc1nccc(Sc2cnc(N3CCC4(CC=C(C5CC5)[C@H]4N)CC3)cn2)c1Cl [Example 144, (S)-8-(5-((2-amino-3-chloropyridin-4-yl)thio)pyrazin-2-yl)-2-cyclopropyl-8-azaspiro[4.5]dec-2-en-1-amine] | 9.19 | 5390 | 436 | 9.08 | 1 | – | 3310 | 247 | 9.24 | 1 | 6.49 | – | – | – | – | Tumor volume (Mean ± SD) Day 0 ([3]; 3 mg/kg QD × 3 w): 172 ± 26 (173 ± 28) mm^3; TGI Day 21 ([3]; 3 mg/kg QD × 3 w): 95.07%; Tumor volume (Mean ± SD) Day 21 ([3]; 3 mg/kg QD × 3 w): 216 ± 66 mm^3; ΔT/ΔC Day 21 ([3]; 3 mg/kg QD × 3 w): 4.93%
